# Source: patent publication US20260159519A1, “IMIDAZOPYRIDAZINE SUBSTITUTED BENZENE RING DERIVATIVE, PREPARATION METHOD, PHARMACEUTICAL COMPOSITION AND USE” (SHANGHAI SIMR BIOTECHNOLOGY CO., LTD., priority 2022, published 2026)
# Key:
# [1] = target: T1, human α2-GABAA receptor (BZD site, membrane protein of HEK293 cells) (Homo sapiens, UniProt P18507+P47869); test: Radioligand competitive binding assay (3H-flunitrazepam) at the BZD site of the α2-GABAA receptor; conditions: competition with 1 nM 3H-flunitrazepam; Ki calculated from IC50; read-out: α2 Ki
# T1 construct: expressed in transfected cells
# Source text: (§1) α subunit, β subunit, and γ subunit are essential for the formation of a complete and functional GABAA receptor. In this example of the present disclosure, HEK293 cells stably expressing the human α1-GABAA receptor (α1-GABAAR) and α2-GABAA receptor (α2-GABAAR) were constructed and separately selected using the lipofection method (Felgner, P. L., et al. Proceedings of the National Academy of Sciences, 1987, 84: 7413-7417). The α1-GABAAR-HEK293 cell model simultaneously expressed the α1 subunit (for protein sequence, see GenBank accession No.: NM_000806.5), the […] (for protein sequence, see GenBank accession No.: NM_000814.5), and the […] (for protein sequence, see GenBank accession No.: NM_000816.3). The α2-GABAAR-HEK293 cell model simultaneously expressed the α2 subunit (for protein sequence, see GenBank accession No.: NM_000807.4), the β3 subunit (for protein sequence, see GenBank accession No.: NM_000814.5), and the γ2 subunit (for protein sequence, see GenBank accession No.: NM_000816.3).
# (§2) The above cell lines were subcultured. The α2-GABAAR-HEK293 cells were expanded for testing the affinity of compounds to the benzodiazepine (BZD) site of the GABAA receptor. During the passage process, some of the α1-GABAAR-HEK293 cells and α2-GABAAR-HEK293 cells were suspended and plated on a slide pre-treated with Poly-D-Lysine for electrophysiological testing (method referenced from patent CN107344936A, paragraph 0586).
# The affinity of the compounds for the α2-GABAA receptor was determined by competing for the binding of ^3H-flunitrazepam (isotope ^3H-labelled flunitrazepam) to the BZD site on the membrane protein of HEK293 cells stably expressing the human α2-GABAAR.
# Membrane preparation: Cells were suspended in 50 mM Tris-HCl buffer (pH=7.4), homogenized 10 times for 20 seconds with a homogenizer on ice, and centrifuged at 1000 g for 10 minutes at 4° C. The supernatant was taken, and the above steps were repeated. The supernatant was centrifuged at 4° C. (33800 g; Thermo, rotor: A27-8×50) for 60 minutes. The precipitate was resuspended in Tris buffer (50 mM Tris-HCl, 10 mM MgCl2, 0.5 mM EDTA, and 10% glycerol). The protein content was determined (BCA (bicinchoninic acid) protein quantification assay based on copper ion reduction, with a BCA kit purchased from Pierce (Annoron (Beijing) Biotechnology Co., Ltd.)), and 1 mL aliquots were prepared and stored at −80° C.
# Radioligand competitive binding assay: This assay was performed in a 200 μL system (96-well plate) containing 100 μL of cell membrane. The concentration of ^3H-flunitrazepam was 1 nM, and the concentrations of the test compounds were in the range of […]. Flumazenil was used as a control. 1 μL of 2 mM flumazenil (final […]) was added to each low signal control (low control, LC) well, and 1 μL of dimethyl sulfoxide was added to each high signal control (high control, HC) well. The final concentration of target membrane protein was […]. All sample stock solutions of test compounds were 10 mM dimethyl sulfoxide solutions. All the samples were diluted to a concentration of 0.2 mM with dimethyl sulfoxide, and then subjected to a 4-fold serial dilution for a total of 8 working concentration gradients. The 96-well plate was sealed with a sealing membrane and then incubated on a shaker at room temperature for 1 hour. Meanwhile, a GF/C filter plate was soaked in plate soaking buffer (0.3% PEI (polyethyleneimine, purchased from Sigma-Aldrich, model: P314), stored at 4° C.) for at least 0.5 hours. After the binding incubation was completed, the cells were harvested onto the GF/C filter plate using a cell harvester and washed four times with plate washing buffer (50 mM Tris-HCl, pH 7.4, stored at 4° C.). After drying in an oven at 50° C. for 1 hour, the dried GF/C filter plate was bottom-sealed. The residual radioactivity on the filter membrane was detected by liquid scintillation counting.
# [2] = target: T2, human α1-GABAA receptor (α1-GABAAR-HEK293 cells) (Homo sapiens, UniProt P14867+P18507); test: Whole-cell patch-clamp electrophysiology, positive allosteric modulatory activity on α1-GABAA receptor; format: cell-based; conditions: read-out: α1-GABAA positive allosteric modulatory activity
# T2 construct: expressed in transfected cells
# Source text: as §1, §2
# (§3) The positive regulatory activity of the test drugs on the α1-GABAA receptor and the α2-GABAA receptor was detected by the electrophysiological method. The specific method was as follows:
# (§4) Compound concentration setting: The final concentration of the compounds used for screening was 100 nM. For cell lines expressing the α1-GABAA receptor, the concentration of GABA was 0.05 to 0.07 μM (approximately EC2-4). For cell lines expressing the α2-GABAA receptor, the concentration of GABA was 0.10 to 0.11 μM (approximately EC7-8). Electrophysiological testing was performed using the whole-cell patch-clamp technique, which can refer to the method reported in the literature (Nickolls, S. A., et al. British Journal of Pharmacology, 2018, 175: 708-725). The composition of the extracellular solution (ECS) for electrophysiology was as follows: 150 mM NaCl, 5 mM KCl, 2.5 mM CaCl2, 1 mM MgCl2, 10 mM HEPES, and 10 mM glucose (pH 7.4). The formulation of the intracellular solution (ICS) for electrophysiology was as follows: 140 mM CsCl, 11 mM EGTA, 10 mM HEPES, 2 mM CaCl2, 1 mM MgCl2, 4 mM MgATP, and 2 mM TEA (pH 7.3). GABA (γ-aminobutyric acid) powder was prepared into a mother liquor with pure water, which was then diluted in ECS. The compound was first prepared into a 4 mM mother liquor with dimethyl sulfoxide, which was then gradually diluted in the corresponding concentration of GABA-ECS. The solutions were freshly prepared prior to electrophysiological testing.
# (§5) Electrophysiological signal acquisition was performed using an EPC 10 amplifier and PatchMaster software (HEKA) or an Axon 700B amplifier and Clampex software (AXON). The recording electrode was made through a drawing process using borosilicate glass, with an electrode resistance of 4 to 6 MΩ. Extracellular administration was performed using the ALA-VC-8PG™ system. A single, independently growing cell was selected. After the glass electrode formed a good seal with the cell, the membrane was ruptured to form the whole-cell configuration. The cell membrane potential was clamped at −60 mV and recorded in Gap-free mode. During the test, the extracellular solution was first applied extracellularly for approximately 20 seconds. After the baseline (Iprebaseline) stabilized, the extracellular solution was switched to GABA-ECS. At this point, the current induced by GABA (Igaba) could be detected. After approximately 10 to 20 seconds, when the current stabilized, the extracellular solution was switched to a mixture of the compound and GABA-ECS. […]
# [3] = target: T3, human α2-GABAA receptor (α2-GABAAR-HEK293 cells) (Homo sapiens, UniProt P18507+P47869); test: Whole-cell patch-clamp electrophysiology, positive allosteric modulatory activity on α2-GABAA receptor; format: cell-based; conditions: read-out: α2-GABAA positive allosteric modulatory activity
# T3 construct: expressed in transfected cells
# Source text: as §1, §2, §3, §4, §5
SMILES,Ki [1] [nM],activation at 0.1 µM [2] [%],activation at 0.1 µM [3] [%]
"CCn1cnc2c(-c3ccc(F)c(-c4cc5oc(C6CCOCC6)nc5cc4OC)c3)cnnc21 [Example 93, 6-(5-(7-Ethyl-7H-imidazo[4,5-c]pyridazin-4-yl)-2-fluorophenyl)-5-methoxy-2-(tetrahydro-2H-pyran-4-yl)benzo[d]oxazole]",8.32,79,115
"CCn1cnc2c(-c3ccc(F)c(-c4cc5cn(C6CCN(C)CC6)nc5cc4OC)c3)cnnc21 [Example 99, 7-Ethyl-4-(4-fluoro-3-(6-methoxy-2-(1-methylpiperidin-4-yl)-2H-indazol-5-yl)phenyl)-7H-imidazo[4,5-c]pyridazine]",4.31,-2,106
"CCn1cnc2c(-c3ccc(F)c(-c4cc5cn(-c6ccccc6)nc5cc4OC)c3)cnnc21 [Example 101, 7-Ethyl-4-(4-fluoro-3-(6-methoxy-2-phenyl-2H-indazol-5-yl)phenyl)-7H-imidazo[4,5-c]pyridazine]",4.46,56,157
"CCn1cnc2c(-c3ccc(F)c(-c4cc5cn(C(F)F)nc5cc4OC)c3)cnnc21 [Example 111, 4-(3-(2-(Difluoromethyl)-6-methoxy-2H-indazol-5-yl)-4-fluorophenyl)-7-ethyl-7H-imidazo[4,5-c]pyridazine]",3.35,64,102
"CCn1cnc2c(-c3ccc(F)c(-c4cc5ccnnc5cc4OC)c3)cnnc21 [Example 112, 6-(5-(7-Ethyl-7H-imidazo[4,5-c]pyridazin-4-yl)-2-fluorophenyl)-7-methoxycinnoline]",7.62,64,171
"CCn1cnc2c(-c3ccc(F)c(-c4cc5cn(C6CC6)nc5cc4OC)c3)cnnc21 [Example 114, 4-(3-(2-Cyclopropyl-6-methoxy-2H-indazol-5-yl)-4-fluorophenyl)-7-ethyl-7H-imidazo[4,5-c]pyridazine]",9.97,68,107
"CCn1cnc2c(-c3ccc(F)c(-c4ccc5c(ncn5C5COC5)c4OC)c3)cnnc21 [Example 115, 7-Ethyl-4-(4-fluoro-3-(4-methoxy-1-(oxetan-3-yl)-1H-benzo[d]imidazol-5-yl)phenyl)-7H-imidazo[4,5-c]pyridazine]",16.4,-25,85
CCn1cnc2c(-c3ccc(F)c(-c4cc5cn(C6CN(C)C6)nc5cc4OC)c3)cnnc21 [Example 117],15.2,37,86
"CCn1cnc2c(OC)c(-c3cc(-c4cnnc5c4ncn5CC)ccc3F)ccc21 [Example 119, 7-Ethyl-4-(3-(1-ethyl-4-methoxy-1H-benzo[d]imidazol-5-yl)-4-fluorophenyl)-7H-imidazo[4,5-c]pyridazine]",15.4,-10,86
"CCn1cnc2c(-c3ccc(F)c(-c4cc5ccn(C)c(=O)c5cc4OC)c3)cnnc21 [Example 121, 6-(5-(7-Ethyl-7H-imidazo[4,5-c]pyridazin-4-yl)-2-fluorophenyl)-7-methoxy-2-methylisoquinolin-1(2H)-one]",3.02,-6,90
"CCn1cnc2c(-c3ccc(F)c(-c4cc5cn(C6CCOC6)nc5cc4OC)c3)cnnc21 (stereo not drawn) [Example 122, 7-Ethyl-4-(4-fluoro-3-(6-methoxy-2-(tetrahydrofuran-3-yl)-2H-indazol-5-yl)phenyl)-7H-imidazo[4,5-c]pyridazine]",4.76,39,125
"CCn1cnc2c(-c3ccc(F)c(-c4cc5ccncc5cc4OC)c3)cnnc21 [Example 123, 6-(5-(7-Ethyl-7H-imidazo[4,5-c]pyridazin-4-yl)-2-fluorophenyl)-7-methoxyisoquinoline]",7.7,33,95
"CCn1cnc2c(-c3ccc(F)c(-c4ccc5c(ncn5C)c4OC)c3)cnnc21 [Example 126, 7-Ethyl-4-(4-fluoro-3-(4-methoxy-1-methyl-1H-benzo[d]imidazol-5-yl)phenyl)-7H-imidazo[4,5-c]pyridazine]",5.22,-35,90
"CCn1cnc2c(-c3ccc(F)c(-c4cc5cn(C6COC6)nc5cc4OC)c3)cnnc21 [Example 129, 7-Ethyl-4-(4-fluoro-3-(6-methoxy-2-(oxetan-3-yl)-2H-indazol-5-yl)phenyl)-7H-imidazo[4,5-c]pyridazine]",3.23,56,128
"CCn1cc2cc(-c3cc(-c4cnnc5c4ncn5CC)ccc3F)c(OC)cc2n1 [Example 130, 7-Ethyl-4-(3-(2-ethyl-6-methoxy-2H-indazol-5-yl)-4-fluorophenyl)-7H-imidazo[4,5-c]pyridazine]",4.8,36,139
"CCn1cnc2c(-c3ccc(F)c(-c4cc5oc(C)nc5cc4OC)c3)cnnc21 [Example 133, 6-(5-(7-Ethyl-7H-imidazo[4,5-c]pyridazin-4-yl)-2-fluorophenyl)-5-methoxy-2-methylbenzo[d]oxazole]",12.7,16,130
